{
  "source": "patent US20210212984A1",
  "about": "“FORMULATION FOR PAIN MANAGEMENT” (Zyus Life Sciences Inc., priority 2019, published 2021)",
  "type_in_all_cases": "in vivo, Sprague-Dawley rats",
  "key": {"SNL operated SD rats [1]": {"tested_on": "SNL operated SD rats", "assay": "Data mining (contrastive PCA) of multivariate kinematic gait data: SNL model score and sedation score", "details": "50 mg/kg", "description": "In this Example, data mining was performed to extend the multivariate kinematic data analysis and capture (a) Parameters indicative of analgesia vs. sedation phenotypes (analgesic or sedation ‘fingerprint’) (b) Quantitative measurement of parameters attributed to the temporal aspects of motion to evaluate temporal aspects of motion, such as positions, angles, velocities, and accelerations of body segments and joints during motion. Briefly, Contrastive Principal Component Analysis (cPCA) was utilized to identify different combinations of original variables which were linked to model effect, learning effect, and sedative effects. An orthogonalization procedure was used to make the obtained effects independent. cPC scores corresponding to identified cPCs were computed. In order to evaluate the analgesic and sedative effects of CBD:CBC:THC 5:5:5 mg/kg group, separate comparisons were performed with vehicle and pregabalin as controls, CBD+THC 10:10 mg/kg as positive control for sedation and CBC 10 mg/kg as negative control for sedation. The results of these comparisons were obtained by using all the previously identified components: model effect, learning effect and model orthogonal to learning, sedation orthogonal to model, and finally, the sedation orthogonal to both model and learning. […]"}, "SNL operated SD rats [2]": {"tested_on": "SNL operated SD rats", "assay": "Fine motor kinematic gait analysis (MotoRater) in SNL rats", "details": "within group, D7 to 24 h PD", "description": "Fine Motor Kinematic Gait Analysis. The rats were subjected to gait analysis at the baseline and on study days 8, 9, 11, 14 and 17, at a minimum of 30 min after the evF test. The assay were carried out by MotoRater (TSE Systems, Homburg, Germany), with the walking mode. Prior to commencing the test, the essential body points (e.g. joints, limbs, nose, tail) were marked for tracking. The information of the gait performance was captured using a high speed camera (300 frames/second) from below and both sides. Next, the captured videos were converted to SimiMotion™ software. The raw data were obtained by tracking the marked points of the body from the videos recorded from all 3 dimensions. […]\nDifferent gait patterns and movements were analyzed using a custom-made automated analysis system. […]\nAll Motorater data were analyzed for the distinct parameters, as well as for all combined parameters, using principal component analysis (PCA). […]\nComprehensive kinematic analysis was performed by high sensitivity MotoRater that allows detection of any subtle to severe gait changes in SNL model. […] The fine motor capabilities and the gait of the animals were evaluated at the baseline and four times after the SNL surgery, 2 h, 5 h, 9 h and 24 hours post-dosing using the kinematic movement analysis of altogether 97 separate parameters that were recorded."}, "SNL operated SD rats [3]": {"tested_on": "SNL operated SD rats", "assay": "Tactile allodynia test, electronic von Frey (evF), paw withdrawal threshold in spinal nerve ligation (SNL) rats", "description": "Spinal Nerve Ligation (SNL) Surgery. The animals were enrolled to SNL surgery in daily cohorts of n=6. The rats first received an intraperitoneal dose of 0.03 mg/kg buprenorphine (Temgesic), minimum of 30 minutes prior to the surgery, to alleviate the operative and postoperative pain unrelated to neuropathy. Prior to spinal nerve ligation (SNL) procedure, the rats were anesthetized with isoflurane in 70% N2O and 30% O2; with a flow rate of 300 ml/min. Anesthesia was inducted in a chamber with 5% isoflurane for 2-3 min, and maintained through a snout mask with 1-2% isoflurane thereafter. A homeothermic blanket system was used for the rectal temperature to be monitored and maintained at 37.0° C.±1.5° C. during the operation.\nA dorsal incision extending from L3 to S2 was performed to the medial dorsal area of the rat using aseptic technique. The L6/S1 posterior interarticular process was exposed using a combination of blunt and sharp dissection. The L6 transverse process in the spinal column was visualized and partially removed without manipulating the nerves, followed by exposing the L4 and L5 spinal nerves distal to their emergence from the intervertebral foramina.\nThe L5 nerve was ligated tightly with 6-0 silk suture. The L6 nerve was then located caudal and medial to the sacroiliac junction and tightly ligated with 6-0 silk suture, similarly to L5. Both ligatures were performed as double knots.\nTactile Allodynia Test (evF) and Pre-Handling and Baseline evF. In this study, mechanical sensitivity to touch stimuli was defined at four timepoints by using electronic von Frey (evF) device along with the attached analysis software (Somedic®, Sweden).\nTo perform the evF test, the rats were placed in individual von Frey test chambers standing on an elevated steel mesh. The rats were then allowed to adapt in the chambers, and the test per se was emerged after they have settled down followed by investigating the chamber and grooming (approximately 15 min). Test […] an animals were grooming, urinating, defecating or sleeping. Further description of test procedure is provided hereinbelow.\nConducting evF Test. Mechanical allodynia were assessed by evF test prior to SNL surgery (baseline), to define the individual sensitivity levels of the study animals. Next, the evF was performed on D 7 post-SNL, to assess the hypersensitivity evoked by the SNL surgery, and to provide pre-dosing sensitivity values for comparing. On D 8, the animals were subjected to the test at 2 h post-dosing (PD), at 4 h PD and at 8 h PD. Subsequently, the test was performed at 24 h PD, i.e. on D 9. On D 9, Group 2 received Pregabalin (i.p) at 2 h prior to testing.\nThe evF apparatus was used according to the manufacturer's instructions. Briefly, upon each measurement, the force is applied to mid-plantar surface of the hind paw in a linearly increasing rate.\nThe used evF probe diameter was 1 mm, and the chosen ascent rate of the force 10 g/s. The linearity of force application was monitored in real time. The applied force (in grams) causing paw withdrawal was recorded by the apparatus as the result for the trial.\nAltogether, 5 repeated measurements were applied to each hind paw at each time-point leaving a minimum of 3-min interval between the repeats. Medians of the 5 measurement repeats were determined from each paw at any given time point. Both ipsi- and contralateral paws were also tested on each test day."}},
  "note": "“And” between values parts separate entries of the source, which are not always exact repeats. Identical values can stand only once.",
  "data": [
    {"compound": "CC(C)C[C@H](CN)CC(=O)O", "note": "[Pregabalin]", "values": [
      {"measurement": "analgesic or sedative effect in the kinematic data", "setting": "SNL operated SD rats [1]", "value": "no analgesic or sedative effect"},
      {"measurement": "overall gait score pattern over time, in words", "setting": "SNL operated SD rats [2]", "value": "increasing score until 9 h PD timepoint"},
      {"measurement": "Mean Diff, evF AUC", "setting": "SNL operated SD rats [3]; 5 mg/kg subset, labelled group vs. CBD + THC + CBC 5:5:1 mg/kg", "value": "13.8 and 14"},
      {"measurement": "Mean Diff, evF AUC", "setting": "SNL operated SD rats [3]; 5 mg/kg subset, labelled group vs. Vehicle", "value": "29.8 and 30"},
      {"measurement": "Mean (Mean 1/Mean 2), electronic von Frey Area Under the Curve (AUC)", "setting": "SNL operated SD rats [3]; Table 2B, 5 mg/kg subset, AUC of % of baseline PWT, pre-dosing to 24 h post-dosing, dose as in label, cannabinoids p.o. D8, Pregabalin 50 mg/kg i.p.", "value": 271},
      {"measurement": "Mean (Mean 1/Mean 2), electronic von Frey AUC", "setting": "SNL operated SD rats [3]; Table 3, 10 mg/kg subset, AUC of % of baseline PWT, pre-dosing to 24 h post-dosing, dose as in label, cannabinoids p.o. D8, Pregabalin 50 mg/kg i.p.", "value": 270.8},
      {"measurement": "Mean Diff, evF AUC", "setting": "SNL operated SD rats [3]; Table 3, labelled group vs. CBD + THC 10 mg/kg", "value": "−63.2"},
      {"measurement": "Mean Diff, evF AUC", "setting": "SNL operated SD rats [3]; Table 3, labelled group vs. CBD + THC 10 mg/kg + CBC 2 mg/kg", "value": "−49.2"},
      {"measurement": "Mean Diff, evF AUC", "setting": "SNL operated SD rats [3]; Table 3, labelled group vs. Vehicle", "value": 29.8},
      {"measurement": "Mean Diff, evF AUC", "setting": "SNL operated SD rats [3]; vs. Vehicle, separate 'Tukey's multiple comparison test' block at foot of Tables 2A/2B", "value": "29.8 and 30"}
    ]}
  ]
}
